This passage reports IC50 results from patent US7893077B2, “Bisaryl-sulfonamides” (Amgen Inc., priority 2004, dated 2011).

This experiment has as its target T1, PPARγ (Homo sapiens, UniProt P37231).
T1 construct: made in house
T1 sequence (P37231 1-505): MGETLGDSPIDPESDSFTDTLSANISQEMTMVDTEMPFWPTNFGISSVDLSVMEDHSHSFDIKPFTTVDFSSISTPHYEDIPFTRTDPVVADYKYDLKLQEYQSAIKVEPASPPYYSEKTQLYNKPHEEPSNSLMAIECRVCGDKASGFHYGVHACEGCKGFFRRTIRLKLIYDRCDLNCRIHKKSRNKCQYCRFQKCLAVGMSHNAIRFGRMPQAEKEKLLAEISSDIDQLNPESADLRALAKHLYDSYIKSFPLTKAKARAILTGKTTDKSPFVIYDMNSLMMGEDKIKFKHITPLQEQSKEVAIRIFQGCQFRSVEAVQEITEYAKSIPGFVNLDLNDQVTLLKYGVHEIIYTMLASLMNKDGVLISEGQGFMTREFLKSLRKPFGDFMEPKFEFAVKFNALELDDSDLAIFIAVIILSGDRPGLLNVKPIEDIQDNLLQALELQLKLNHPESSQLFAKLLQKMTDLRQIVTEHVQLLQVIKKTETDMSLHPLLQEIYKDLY
Description: PPARγ ligand binding assay utilizing [3H]-BRL 49653 as the radioligand (filtration). The note with it: concentration required to reduce by 50% the specific binding of [3H]-BRL 49653. The procedure, abridged:
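Displacement of 10 nM [3H]-BRL 49653 from PPARγ-GST fusion protein in Tris-HCl pH 8.0 buffer with KCl, DTT, BSA and NP-40, 15 min incubation, then glutathione-bead capture for 1 h. Bound radioactivity counted after filtration washes; IC50 is concentration giving 50% loss of specific binding, reported in ranges.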

Consider `CCCOc1nc(NS(=O)(=O)c2ccc(Cl)cc2Cl)ccc1Sc1ccc(S(=O)(=O)N2CCCCC2)cc1` [Compound 111, 2,4-Dichloro-N-{5-[4-(piperidine-1-sulfonyl)-phenylsulfanyl]-6-propoxy-pyridin-2-yl}-benzenesulfonamide], for which the IC50 was below 10 µM. The figure for `CCCC(=O)c1nc(NS(=O)(=O)c2ccc(Cl)cc2Cl)ccc1Sc1ccc(S(=O)(=O)C2CCCC2)cc1` [Compound 112, N-[6-Butyryl-5-(4-cyclopentanesulfonyl-phenylsulfanyl)-pyridin-2-yl]-2,4-dichloro-benzenesulfonamide] is below 1 µM. The figure for `O=C(c1nc(NS(=O)(=O)c2ccc(Cl)cc2Cl)ccc1Sc1ccc(S(=O)(=O)C2CCCC2)cc1)C1CC1` [Compound 113, 2,4-Dichloro-N-[5-(4-cyclopentanesulfonyl-phenylsulfanyl)-6-cyclopropanecarbonyl-pyridin-2-yl]-benzenesulfonamide] is below 1 µM; for `CCCC(=O)c1nc(NS(=O)(=O)c2ccc(C(F)(F)F)cc2Cl)ccc1Sc1ccc(S(=O)(=O)C2CCCC2)cc1` [Compound 114, N-[6-Butyryl-5-(4-cyclopentanesulfonyl-phenylsulfanyl)-pyridin-2-yl]-2-chloro-4-trifluoromethyl-benzenesulfonamide] it is below 1 µM.

As for `O=C(c1nc(NS(=O)(=O)c2ccc(C(F)(F)F)cc2Cl)ccc1Sc1ccc(S(=O)(=O)C2CCCC2)cc1)C1CC1` [Compound 115, 2-Chloro-N-[5-(4-cyclopentanesulfonyl-phenylsulfanyl)-6-cyclopropanecarbonyl-pyridin-2-yl]-4-trifluoromethyl-benzenesulfonamide], the half-maximal inhibitory concentration (IC50) was below 1 µM. In turn, `CCCC(=O)c1nc(NS(=O)(=O)c2ccc(C(F)(F)F)cc2Cl)ccc1Sc1ccc(S(=O)(=O)C(CC)CC)cc1` [Compound 116, N-{6-Butyryl-5-[4-(pentane-3-sulfonyl)-phenylsulfanyl]-pyridin-2-yl}-2-chloro-4-trifluoromethyl-benzenesulfonamide] yielded an IC50 below 1 µM. The result for `CCC(CC)S(=O)(=O)c1ccc(Sc2ccc(NS(=O)(=O)c3ccc(C(F)(F)F)cc3Cl)nc2C(=O)C2CC2)cc1` [Compound 117, 2-Chloro-N-{6-cyclopropanecarbonyl-5-[4-(pentane-3-sulfonyl)-phenylsulfanyl]-pyridin-2-yl}-4-trifluoromethyl-benzenesulfonamide] reads below 10 µM.

Regarding `CCCC(=O)c1nc(NS(=O)(=O)c2ccc(Cl)cc2Cl)ccc1Sc1ccc(S(=O)(=O)NCC)cc1` [Compound 118, N-[6-Butyryl-5-(4-ethylsulfamoyl-phenylsulfanyl)-pyridin-2-yl]-2,4-dichloro-benzenesulfonamide], the IC50 was below 1 µM. The result for `CCNS(=O)(=O)c1ccc(Sc2ccc(NS(=O)(=O)c3ccc(Cl)cc3Cl)nc2C(=O)C2CC2)cc1` [Compound 119, 2,4-Dichloro-N-[6-cyclopropanecarbonyl-5-(4-ethylsulfamoyl-phenylsulfanyl)-pyridin-2-yl]-benzenesulfonamide] reads below 1 µM; that for `CCCC(=O)c1nc(NS(=O)(=O)c2ccc(C(F)(F)F)cc2Cl)ccc1Sc1ccc(S(=O)(=O)NCC)cc1` [Compound 120, N-[6-Butyryl-5-(4-ethylsulfamoyl-phenylsulfanyl)-pyridin-2-yl]-2-chloro-4-trifluoromethyl-benzenesulfonamide], below 1 µM; that for `CCNS(=O)(=O)c1ccc(Sc2ccc(NS(=O)(=O)c3ccc(C(F)(F)F)cc3Cl)nc2C(=O)C2CC2)cc1` [Compound 121, 2-Chloro-N-[6-cyclopropanecarbonyl-5-(4-ethylsulfamoyl-phenylsulfanyl)-pyridin-2-yl]-4-trifluoromethyl-benzenesulfonamide], below 1 µM. `CCCCc1nc(NS(=O)(=O)c2ccc(Cl)cc2Cl)ccc1Sc1ccc(S(=O)(=O)N2CCCCC2)cc1` [Compound 122, N-{6-Butyl-5-[4-(piperidine-1-sulfonyl)-phenylsulfanyl]-pyridin-2-yl}-2,4-dichloro-benzenesulfonamide]: the IC50 is below 1 µM. The figure for `CCCCc1nc(NS(=O)(=O)c2ccc(C(F)(F)F)cc2Cl)ccc1Sc1ccc(S(=O)(=O)N2CCCCC2)cc1` [Compound 123, N-{6-Butyl-5-[4-(piperidine-1-sulfonyl)-phenylsulfanyl]-pyridin-2-yl}-2-chloro-4-trifluoromethyl-benzenesulfonamide] is below 1 µM; for `CCCCc1nc(NS(=O)(=O)c2ccc(Cl)cc2Cl)ccc1Sc1ccc(S(=O)(=O)N2CCOCC2)cc1` [Compound 124, N-{6-Butyl-5-[4-(morpholine-4-sulfonyl)-phenylsulfanyl]-pyridin-2-yl}-2,4-dichloro-benzenesulfonamide] it is below 1 µM.

As for `CCCCc1nc(NS(=O)(=O)c2ccc(C(F)(F)F)cc2Cl)ccc1Sc1ccc(S(=O)(=O)N2CCOCC2)cc1` [Compound 125, N-{6-Butyl-5-[4-(morpholine-4-sulfonyl)-phenylsulfanyl]-pyridin-2-yl}-2-chloro-4-trifluoromethyl-benzenesulfonamide], the 50% inhibitory concentration (IC50) was below 1 µM. Take `CCCCCOC(=O)c1cc(NS(=O)(=O)c2ccc(Cl)cc2Cl)ncc1Sc1ccc(S(=O)(=O)N2CCCCC2)cc1` [Compound 126, 2-(2,4-Dichloro-benzenesulfonylamino)-5-[4-(piperidine-1-sulfonyl)-phenylsulfanyl]-isonicotinic acid pentyl ester]: the IC50 is below 1 µM. For the compound `O=C(c1cc(NS(=O)(=O)c2ccc(Cl)cc2Cl)ncc1Sc1ccc(S(=O)(=O)N2CCCCC2)cc1)C1CC1` [Compound 128, 2,4-dichloro-N-{4-cyclopropanecarbonyl-5-[4-(piperidine-1-sulfonyl)-phenylsulfanyl]-pyridin-2-yl}-benzenesulfonamide], the IC50 was below 1 µM. The result for `O=C(c1cc(NS(=O)(=O)c2ccc(C(F)(F)F)cc2Cl)ncc1Sc1ccc(S(=O)(=O)N2CCOCC2)cc1)C1CC1` [Compound 129, 2-Chloro-N-{4-cyclopropanecarbonyl-5-[4-(morpholine-4-sulfonyl)-phenylsulfanyl]-pyridin-2-yl}-4-trifluoromethyl-benzenesulfonamide] reads below 1 µM; that for `CCCCc1cc(NS(=O)(=O)c2ccc(C(F)(F)F)cc2Cl)nnc1Sc1ccc(S(=O)(=O)N2CCOCC2)cc1` [Compound 130, 3-(2′-chloro-4′-trifluoromethyl)phenylsulfonylamino-5-n-butyl-6-(4″-N-morpholinesulfonyl)phenylthiopyridazine], below 1 µM; that for `CCCCc1cc(NS(=O)(=O)c2ccc(Cl)cc2Cl)nnc1Sc1ccc(S(=O)(=O)N2CCOCC2)cc1` [Compound 131, 3-(2′,4′-dichloro)phenylsulfonylamino-5-n-butyl-6-(4″-N-morpholinesulfonyl)phenylthiopyridazine], below 1 µM.

`CCCCc1cc(NS(=O)(=O)c2ccc(Cl)cc2Cl)nnc1Sc1ccc(S(=O)(=O)N2CCCCC2)cc1` [Compound 132, 3-(2′,4′-dichloro)phenylsulfonylamino-5-n-butyl-6-(4″-N-piperidinesulfonyl)phenylthiopyridazine] came in with an IC50 below 1 µM. The figure for `CCCCc1cc(NS(=O)(=O)c2ccc(Cl)cc2Cl)nnc1Sc1ccc(S(=O)(=O)C2CCCC2)cc1` [Compound 133, 3-(2′,4′-dichloro)phenylsulfonylamino-5-n-butyl-6-(4″-cyclopentanesulfonyl)phenylthiopyridazine] is below 1 µM.

`CCCCc1cc(NS(=O)(=O)c2ccc(C(F)(F)F)cc2Cl)nnc1Sc1ccc(S(=O)(=O)C2CCCC2)cc1` [Compound 134, 3-(2′-chloro-4′-trifluoromethyl)phenylsulfonylamino-5-n-butyl-6-(4″-cyclopentanesulfonyl)phenylthiopyridazine] came in with a half-maximal inhibitory concentration (IC50) below 1 µM.

The compound `CC(C)c1cc(NS(=O)(=O)c2ccc(C(F)(F)F)cc2Cl)nnc1Sc1ccc(S(=O)(=O)N2CCOCC2)cc1` [Compound 135, 3-(2′-chloro-4′-trifluoromethyl)phenylsulfonylamino-5-iso-propyl-6-(4″-N-morpholinesulfonyl)phenylthiopyridazine] yielded an IC50 below 10 µM. The result for `Cc1cc(NS(=O)(=O)c2ccc(C(F)(F)F)cc2Cl)nnc1Sc1ccc(S(=O)(=O)N2CCCCC2)cc1` [Compound 136, 2-Chloro-N-{5-methyl-6-[4-(piperidine-1-sulfonyl) -phenylsulfanyl]-pyridazin-3-yl}-4-trifluoromethyl-benzenesulfonamide] reads below 1 µM. The result for `Cc1cc(Sc2ccc(S(=O)(=O)N3CCCCC3)cc2)nnc1NS(=O)(=O)c1ccc(C(F)(F)F)cc1Cl` [Compound 137, 2-Chloro-N-{4-methyl-6-[4-(piperidine-1-sulfonyl) -phenylsulfanyl]-pyridazin-3-yl}-4-trifluoromethyl-benzenesulfonamide] reads below 10 µM; that for `Cc1cc(S(=O)(=O)Nc2cc(C)c(Sc3ccc(S(=O)(=O)N4CCCCC4)cc3)nn2)c(Cl)cc1Cl` [Compound 138, 2,4-Dichloro-5-methyl-N-{5-methyl-6-[4-(piperidine-1-sulfonyl)-phenylsulfanyl]-pyridazin-3-yl}-benzenesulfonamide], below 1 µM.

For orientation: IC50 means the midpoint of a concentration-inhibition curve. The low end stands for greater potency in that assay, the high end for weaker potency in that assay.
